Measured values taken from patent US7625872B2, “Branched immunomodulatory compounds and methods of using the same” (Dynavax Technologies Corporation, priority 2002, dated 2009).

Experiments:
[1] = solubility of spacer moiety measured as dialcohol precursor; type: physicochemical; settings: dodecyl spacer measured as dialcohol precursor; water solubility
Method: In addition, a spacer moiety that has low solubility, such as a dodecyl spacer (solubility <5 mg/ml when measured as dialcohol precursor 1,12-dihydroxydodecane) is not preferred because it can reduce the hydrophilicity and activity of the BIC. Preferably, spacer moieties have solubility much greater than 5 mg/ml (e.g., solubility at least about 20 mg/ml, at least about 50 mg/ml or at least about 100 mg/ml), e.g., when measured as dialcohol precursors. The form of the spacer moiety used for testing its water solubility is generally its most closely related unactivated and unprotected spacer precursor molecule.

human PBMC cells = assay: human PBMC assay: IFN-γ and IFN-α in cell-free medium by ELISA; type: cell-based; settings: for IFN-α (pg/ml) 17240 / IFN-γ (pg/ml) 17240: donor 17240; for IFN-α (pg/ml) 17240 / IFN-γ (pg/ml) 17240 / IFN-α (pg/ml) 17241 / IFN-γ (pg/ml) 17241 / IFN-α (pg/ml) 17242 / IFN-γ (pg/ml) 17242 / IFN-α (pg/ml) 17243 / IFN-γ (pg/ml) 17243 / IFN-α (pg/ml) mean: test samples 20 μg/ml, '+ PLGA' = premixed with 100 μg/ml cPLGA; for IFN-α (pg/ml) 17240 / IFN-γ (pg/ml) 17240 / IFN-α (pg/ml) 17241 / IFN-γ (pg/ml) 17241 / IFN-α (pg/ml) 17242 / IFN-γ (pg/ml) 17242 / IFN-α (pg/ml) 17243 / IFN-γ (pg/ml) 17243 / IFN-α (pg/ml) mean / IFN-α +PLGA / IFN-γ +PLGA / IFN-α −PLGA / IFN-γ −PLGA: 24 hours; for IFN-α (pg/ml) 17240 / IFN-γ (pg/ml) 17240 / IFN-α (pg/ml) 17241 / IFN-γ (pg/ml) 17241 / IFN-α (pg/ml) 17242 / IFN-γ (pg/ml) 17242 / IFN-α (pg/ml) 17243 / IFN-γ (pg/ml) 17243: SAC 1/5000 dilution; for IFN-α (pg/ml) 17241 / IFN-γ (pg/ml) 17241: donor 17241; for IFN-α (pg/ml) 17242 / IFN-γ (pg/ml) 17242: donor 17242; for IFN-α (pg/ml) 17243 / IFN-γ (pg/ml) 17243: donor 17243; for IFN-α (pg/ml) mean: mean of 4 donors; for IFN-α +PLGA / IFN-γ +PLGA / IFN-α −PLGA / IFN-γ −PLGA: mean results (Table 4; unit in Table 3); for IFN-α +PLGA / IFN-γ +PLGA: 20 μg/ml formulated with 100 μg/ml cPLGA; for IFN-α −PLGA / IFN-γ −PLGA: compound alone, 20 μg/ml
Method: Peripheral blood was collected from volunteers by venipuncture using heparinized syringes. Blood was layered onto a FICOLL® (Amersham Pharmacia Biotech) cushion and centrifuged. PBMCs, located at the FICOLL® interface, were collected, then washed twice with cold phosphate buffered saline (PBS). The cells were resuspended and cultured in 48 well plates or 96-well plates at 2×10^6 cells/mL at 37° C. in RPMI 1640 with 10% heat-inactivated human AB serum plus 50 units/mL penicillin, 50 μg/mL streptomycin, 300 μg/mL glutamine, 1 mM sodium pyruvate, and 1×MEM non-essential amino acids (NEAA).
The cells were cultured in the absence of test samples, in the presence of test samples at 20 μg/ml (0.5 OD/ml), or in the presence of test samples at 20 μg/ml premixed with 100 μg/ml cationic poly(lactic acid, glycolic acid) microcarriers (cPLGA; see infra) (when used) for 24 hours. Cell-free medium was then collected from each well and assayed for IFN-γ and IFN-α concentrations. SAC (Pansorbin CalBiochem, 1/5000 dilution) was used as a positive control. SAC is Staph. aureus (cowan) cell material.
IFN-γ and IFN-α were assayed using CYTOSCREEN™ ELISA kits from BioSource International, Inc., according to the manufacturer's instructions.
Compound B07 (see Example 1, above) was tested for immunomodulatory activity in human PBMC cells as outlined in Example 9, above. For comparison purposes, the immunomodulatory activities of a variety of polynucleotides and chimeric molecules containing spacer moieties were also assayed. The syntheses and features of immunomodulatory chimeric molecules like compounds C-101, C-124, and C-125 are described in U.S. patent application Ser. No. 10/176,883 entitled, “Chimeric Immunomodulatory Compounds and Methods of Using the Same,” filed on Jun. 21, 2002, herein incorporated by reference. All nucleotide linkages and linkages between NAMs, spacer moieties and branch-point nucleosides in the listed compounds are phosphorothioate esters. HEG=hexaethylene glycol; symmetrical doubler=1,3-diamino-2-propanol; trebler=modified pentaerythritol; T-C6=2′-deoxyuridine; AHA=aminohexyl-3(E)-acrylamido linked at the C-5 position of 2′-deoxyuridine (see FIG. 1A). The compounds were each tested both alone and formulated with cPLGA (see Example 9, supra).

Compound | solubility [1] [µg/mL] | IFN-α (pg/ml) 17240 (human PBMC cells) [pg/mL] | IFN-γ (pg/ml) 17240 (human PBMC cells) [pg/mL] | IFN-α (pg/ml) 17241 (human PBMC cells) [pg/mL] | IFN-γ (pg/ml) 17241 (human PBMC cells) [pg/mL] | IFN-α (pg/ml) 17242 (human PBMC cells) [pg/mL] | IFN-γ (pg/ml) 17242 (human PBMC cells) [pg/mL] | IFN-α (pg/ml) 17243 (human PBMC cells) [pg/mL] | IFN-γ (pg/ml) 17243 (human PBMC cells) [pg/mL] | IFN-α (pg/ml) mean (human PBMC cells) [pg/mL] | IFN-α +PLGA (human PBMC cells) [pg/mL] | IFN-γ +PLGA (human PBMC cells) [pg/mL] | IFN-α −PLGA (human PBMC cells) [pg/mL] | IFN-γ −PLGA (human PBMC cells) [pg/mL] | immunomodulatory activity compared with linear polynucleotide P-6 (human PBMC cells; PBMC assays, in words) | induction of IFN-γ and IFN-α compared with chimeric compounds (human PBMC cells; PBMC assays, in words)
OCCCCCCCCCCCCO [1,12-dihydroxydodecane] | < 5000 | – | – | – | – | – | – | – | – | – | – | – | – | – | – | –
5′-TGACTGTGAACGTTCGAGATGA-3′ [P-6] | – | 86 | 172 | 30 | 158 | 57 | 47 | 30 | 77 | 51 | 295 | 568 | 51 | 113 | – | –
(5′-TAGTCAT-3′-HEG)2-glycerol-HEG-5′-AACCTTC-3′ [M-100] | – | 30 | 27 | 30 | 71 | 30 | 10 | 30 | 41 | 30 | 69 | 136 | 30 | 37 | – | –
5′-TGACTGTGAACCTTAGAGATGA-3′ (DNA TGACTGTGAACCTTAGAGATGA; DNA, all phosphorothioate, methylation of C not given here) [P-7] | – | 30 | 35 | 30 | 127 | 30 | 10 | 30 | 58 | 30 | 30 | 34 | 30 | 58 | – | –
(5′-TAGTCAT-3′-HEG)2-symmetrical doubler-HEG-5′-TAGTCAT-3′ [M-101] | – | 39 | 24 | 30 | 10 | 30 | 10 | 30 | 22 | 32 | 68 | 92 | 32 | 16 | – | –
(5′-TCGACGT-3′-HEG)2-symmetrical doubler-HEG-5′-TCGACGT-3′ [C-124] | – | 1048 | 303 | 239 | 155 | 1186 | 65 | 249 | 142 | 680 | 7017 | 2661 | 680 | 166 | – | –
(5′-TAGTCAT-HEG)3-trebler-HEG-5′-TAGTCAT-3′ [M-102] | – | 30 | 34 | 30 | 24 | 30 | 10 | 30 | 45 | 30 | 85 | 61 | 30 | 28 | – | –
(5′-TCGACGT-3′-HEG)2-glycerol-HEG-5′-TCGACGT-3′ [C-101] | – | 2189 | 237 | 520 | 147 | 1071 | 73 | 293 | 142 | – | 5609 | 1323 | – | 150 | – | –
(5′-TCGACGT3′-HEG)2-(T-C6 brancher)-HEG-5′-TCGACGT-3′ [B07 (#2)] | – | 1046 | 207 | 253 | 129 | 1365 | 48 | 520 | 158 | 796 | 8998 | 1016 | 796 | 135 | – | –
(5-TCGACGT-3′-HEG)2-(T-C6)-AHA-HEG-5′-TCGACGT-3′ [B07] | – | 1080 | 205 | 122 | 108 | 1039 | 30 | 201 | 140 | 610 | 7298 | 883 | 610 | 121 | far superior immunomodulatory activity than the linear polynucleotide P-6 | activity similar to the immunomodulatory chimeric compounds C-101, C-124, and C-125
(5′-TCGACGT-3′-HEG)3-trebler-HEG-5′-TCGACGT-3′ [C-125] | – | 1519 | 253 | 67 | 136 | 1284 | 85 | 309 | 184 | 795 | 6348 | 889 | 795 | 165 | – | –
